Experiments:
Type in all cases: in vivo
Xanthium = assay: Pre-emergence test, greenhouse; conditions: terbutylazin 200 g/ha, after 26 days
Text: (§1) A synergistic effect is always obtained when the herbicidal action of the combination of compound I and 2.1 to 2.33 is greater than the sum of the action of the individual herbicides.
(§2) The expected herbicidal action We for a given combination of two herbicides can be calculated as follows (q.v. COLBY, S. R., “Calculating synergistic and antagonistic response of herbicide combinations”, Weeds 15, pages 20-22, 1967):
(§3) If the value actually observed is higher than the expected value We, then there is synergism.
(§4) The test plants are sown in plastic pots in standard soil under greenhouse conditions. Directly after sowing, the test substances are applied in an aqueous suspension (500 l water/ha). The test plants are then further cultivated in the greenhouse under optimum conditions. The rates of application depend on the optimum dosages determined under field conditions and greenhouse conditions. Evaluation of the tests is made after 26 days (% activity, 100% plant perished, 0%=no phytotoxic effect).

Convolvulus = assay: Pre-emergence test, greenhouse; conditions: terbutylazin 200 g/ha, after 26 days
Text: as §1, §2, §3, §4

Polygonum = assay: Pre-emergence test, greenhouse; conditions: terbutylazin 200 g/ha, after 26 days
Text: as §1, §2, §3, §4

Ipomoea = assay: Pre-emergence test, greenhouse; conditions: terbutylazin 200 g/ha, after 26 days
Text: as §1, §2, §3, §4

Digitaria = assay: Postemergence test, greenhouse; conditions: halosulfuron 100 g/ha, after 20 days
Text: as §1, §2, §3
(§5) The test plants are grown under greenhouse conditions in plastic pots until reaching the 2-3 leaf stage. Standard soil is used, as the substrate for cultivation. At the 2-3 leaf stage, the herbicides are applied to the test plants on their own and in a mixture. Application is effected in the form of an aqueous suspension of the test substances in 500 1 water/ha. The rates of application depend on the optimum dosages determined under field conditions and greenhouse conditions. Evaluation of the tests is made after 20 days (% activity, 100%=plant perished, 0%=no phytotoxic effect).

maize Dk 261 = assay: Postemergence test, greenhouse; conditions: halosulfuron 100 g/ha, after 20 days
Text: as §1, §2, §3, §5

Structure (SMILES)	% activity (herbicidal action) (Xanthium)	% activity (herbicidal action) (Convolvulus)	% activity (herbicidal action) (Polygonum)	% activity (herbicidal action) (Ipomoea)	% activity (herbicidal action) (Digitaria)	% activity (herbicidal action) (maize Dk 261)
CCNc1nc(Cl)nc(NC(C)(C)C)n1 [terbutylazin]	0%	80%	60%	30%		
COc1cc(OC)nc(NC(=O)NS(=O)(=O)c2c(C(=O)O)c(Cl)nn2C)n1 [halosulfuron]					25%	5%

— patent US6413907B2, “Herbicidal composition” (Syngenta Crop Protection, Inc., priority 1999, dated 2002)
